{"source": "PubChem BioAssay AID504473", "about": "(NMMLSC, 2011)", "assay_in_all_cases": "expression changes of rapamycin-responsive GFP fusion proteins, S. cerevisiae, GFP-tagged clone panel, flow cytometry (AID 504473);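 note: median GFP fluorescence of the cells measured by high-throughput flow cytometry; test concentration not given here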", "settings_in_all_cases": "S. cerevisiae GFP-tagged strains, 3 h", "key": {"[1]": {"test_system": "YIL069C"}, "[2]": {"test_system": "YLL026W"}, "[3]": {"test_system": "YJL144W"}, "[4]": {"test_system": "YDR399W"}, "[5]": {"test_system": "YLR109W"}, "[6]": {"test_system": "YOL052C-A"}, "[7]": {"test_system": "YEL063C"}, "[8]": {"test_system": "YML034W"}, "[9]": {"test_system": "YOR038C"}, "[10]": {"test_system": "YHR203C"}, "[11]": {"test_system": "YLR237W"}, "[12]": {"test_system": "YIL052C"}, "[13]": {"test_system": "YHR087W"}, "[14]": {"test_system": "YNL142W"}, "[15]": {"test_system": "YGL135W"}, "[16]": {"test_system": "YLL039C"}, "[17]": {"test_system": "YCR002C"}, "[18]": {"test_system": "YML026C"}, "[19]": {"test_system": "YFR053C"}, "[20]": {"test_system": "YGR034W"}, "[21]": {"test_system": "YPL265W"}, "[22]": {"test_system": "YPR145W"}, "[23]": {"test_system": "YAL060W"}, "[24]": {"test_system": "YDR453C"}, "[25]": {"test_system": "YEL071W"}, "[26]": {"test_system": "YDL130W"}, "[27]": {"test_system": "YMR120C"}, "[28]": {"test_system": "YEL060C"}, "[29]": {"test_system": "YKR093W"}, "[30]": {"test_system": "YDR070C"}, "[31]": {"test_system": "YBR248C"}, "[32]": {"test_system": "YPL111W"}, "[33]": {"test_system": "YFR031C-A"}, "[34]": {"test_system": "YOR063W"}, "[35]": {"test_system": "YJL056C"}, "[36]": {"test_system": "YML128C"}, "[37]": {"test_system": "YIL051C"}, "[38]": {"test_system": "YLR142W"}, "[39]": {"test_system": "YBL087C"}, "[40]": {"test_system": "YNL112W"}, "[41]": {"test_system": "YPR184W"}, "[42]": {"test_system": "YEL007W"}, "[43]": {"test_system": "YLR185W"}, "[44]": {"test_system": "YER151C"}, "[45]": {"test_system": "YGR019W"}, "[46]": {"test_system": "YDR382W"}, "[47]": {"test_system": "YBR072W"}, "[48]": {"test_system": "YKL086W"}}, "note": "Activity calls are given as the source filed them.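 Rule for the calls: active = GFP ratio to DMSO above 1.5 or below 0.66; inactive = the rest.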"}
{"smiles": "CO[C@H]1C[C@@H]2CC[C@@H](C)[C@@](O)(O2)C(=O)C(=O)N2CCCC[C@H]2C(=O)O[C@H]([C@H](C)C[C@@H]2CC[C@@H](O)[C@H](OC)C2)CC(=O)[C@H](C)/C=C(\\C)[C@@H](O)[C@@H](OC)C(=O)[C@H](C)C[C@H](C)/C=C/C=C/C=C/1C", "values": [{"measurement": "GFP ratio to DMSO", "setting": "[1]", "result": 0.171}, {"measurement": "GFP ratio to DMSO", "setting": "[2]", "result": 2.05}, {"measurement": "GFP ratio to DMSO", "setting": "[3]", "result": 2.03}, {"measurement": "GFP ratio to DMSO", "setting": "[4]", "result": "0.946 (inactive)"}, {"measurement": "GFP ratio to DMSO", "setting": "[5]", "result": "1.43 (inactive)"}, {"measurement": "GFP ratio to DMSO", "setting": "[6]", "result": 2.68}, {"measurement": "GFP ratio to DMSO", "setting": "[7]", "result": 1.7}, {"measurement": "GFP ratio to DMSO", "setting": "[8]", "result": "1.04 (inactive)"}, {"measurement": "GFP ratio to DMSO", "setting": "[9]", "result": "1.21 (inactive)"}, {"measurement": "GFP ratio to DMSO", "setting": "[10]", "result": "0.685 (inactive)"}, {"measurement": "GFP ratio to DMSO", "setting": "[11]", "result": "0.864 (inactive)"}, {"measurement": "GFP ratio to DMSO", "setting": "[12]", "result": 0.619}, {"measurement": "GFP ratio to DMSO", "setting": "[13]", "result": 2.24}, {"measurement": "GFP ratio to DMSO", "setting": "[14]", "result": 15.6}, {"measurement": "GFP ratio to DMSO", "setting": "[15]", "result": "0.682 (inactive)"}, {"measurement": "GFP ratio to DMSO", "setting": "[16]", "result": 1.77}, {"measurement": "GFP ratio to DMSO", "setting": "[17]", "result": "0.98 (inactive)"}, {"measurement": "GFP ratio to DMSO", "setting": "[18]", "result": 0.289}, {"measurement": "GFP ratio to DMSO", "setting": "[19]", "result": 1.66}, {"measurement": "GFP ratio to DMSO", "setting": "[20]", "result": "0.689 (inactive)"}, {"measurement": "GFP ratio to DMSO", "setting": "[21]", "result": 3.22}, {"measurement": "GFP ratio to DMSO", "setting": "[22]", "result": 2.19}, {"measurement": "GFP ratio to DMSO", "setting": "[23]", "result": 3.23}, {"measurement": "GFP ratio to DMSO", "setting": "[24]", "result": 2.58}, {"measurement": "GFP ratio to DMSO", "setting": "[25]", "result": 2.11}, {"measurement": "GFP ratio to DMSO", "setting": "[26]", "result": "0.717 (inactive)"}, {"measurement": "GFP ratio to DMSO", "setting": "[27]", "result": 0.612}, {"measurement": "GFP ratio to DMSO", "setting": "[28]", "result": 2.55}, {"measurement": "GFP ratio to DMSO", "setting": "[29]", "result": 3.56}, {"measurement": "GFP ratio to DMSO", "setting": "[30]", "result": 4.12}, {"measurement": "GFP ratio to DMSO", "setting": "[31]", "result": "1.11 (inactive)"}, {"measurement": "GFP ratio to DMSO", "setting": "[32]", "result": 2.16}, {"measurement": "GFP ratio to DMSO", "setting": "[33]", "result": 0.481}, {"measurement": "GFP ratio to DMSO", "setting": "[34]", "result": "0.703 (inactive)"}, {"measurement": "GFP ratio to DMSO", "setting": "[35]", "result": "0.954 (inactive)"}, {"measurement": "GFP ratio to DMSO", "setting": "[36]", "result": 2.56}, {"measurement": "GFP ratio to DMSO", "setting": "[37]", "result": "1.4 (inactive)"}, {"measurement": "GFP ratio to DMSO", "setting": "[38]", "result": "1.41 (inactive)"}, {"measurement": "GFP ratio to DMSO", "setting": "[39]", "result": 0.33}, {"measurement": "GFP ratio to DMSO", "setting": "[40]", "result": "0.73 (inactive)"}, {"measurement": "GFP ratio to DMSO", "setting": "[41]", "result": 2.01}, {"measurement": "GFP ratio to DMSO", "setting": "[42]", "result": "1.05 (inactive)"}, {"measurement": "GFP ratio to DMSO", "setting": "[43]", "result": "0.705 (inactive)"}, {"measurement": "GFP ratio to DMSO", "setting": "[44]", "result": "1.03 (inactive)"}, {"measurement": "GFP ratio to DMSO", "setting": "[45]", "result": 1.93}, {"measurement": "GFP ratio to DMSO", "setting": "[46]", "result": "0.783 (inactive)"}, {"measurement": "GFP ratio to DMSO", "setting": "[47]", "result": 4.94}, {"measurement": "GFP ratio to DMSO", "setting": "[48]", "result": "1.49 (inactive)"}]}
